Measurements reported in patent US10864196B2, “Modulators of the integrated stress pathway” (Calico Life Sciences LLC, priority 2016, dated 2020).

Test system: HEK293T cells carrying the ATF4 luciferase reporter
Assay: ATF4-Luc assay (in vitro model of VWMD)
Assay type: cell-based
Conditions: Homo sapiens, HEK-293T, 1 μg/mL tunicamycin, 7 hours, One Glo luminescence
Experimental: In order to test exemplary compounds of the invention in a cellular context, a stable VWMD cell line was first constructed. The ATF4 reporter was prepared by fusing the human full-length ATF4 5′-UTR (NCBI Accession No. BC022088.2) in front of the firefly luciferase (FLuc) coding sequence lacking the initiator methionine as described in Sidrauski et al (eLife 2013). The construct was used to produce recombinant retroviruses using standard methods and the resulting viral supernatant was used to transduce HEK293T cells, which were then subsequently selected with puromycin to generate a stable cell line.
HEK293T cells carrying the ATF4 luciferase reporter were plated on polylysine coated 384-well plates (Greiner Bio-one) at 30,000 cells per well. Cells were treated the next day with 1 μg/mL tunicamycin and 200 nM of a compound of Formula (I) for 7 hours. Luminescence was measured using One Glo (Promega) as specified by the manufacturer. Cells were maintained in DMEM with L-glutamine supplemented with 10% heat-inactivated FBS (Gibco) and Antibiotic-Antimycotic solution (Gibco).
Table 2 below summarizes the EC50 data obtained using the ATF4-Luc assay for exemplary compounds of the invention.

| Compound | EC50 |
| --- | --- |
| O=C(COc1ccc(Cl)cc1)NC12CC(c3nnc(COc4ccc(Cl)cc4)o3)(C1)C2 [Compound 100, 2-(4-chlorophenoxy)-N-(3-{5-[(4-chlorophenoxy)methyl]-1,3,4-oxadiazol-2-yl}bicyclo[1.1.1]pentan-1-yl)acetamide] | 50 to 250 nM |
| O=C(COc1ccc(Cl)cc1)NC12CC(c3nc(COc4ccc(Cl)cc4)no3)(C1)C2 [Compound 101, 2-(4-chlorophenoxy)-N-(3-{3-[(4-chlorophenoxy)methyl]-1,2,4-oxadiazol-5-yl}bicyclo[1.1.1]pentan-1-yl)acetamide] | < 50 nM |
| Cc1cccc(OCC(=O)NC23CC(c4nc(COc5ccc(Cl)cc5)no4)(C2)C3)c1 [Compound 102, N-(3-{3-[(4-chlorophenoxy)methyl]-1,2,4-oxadiazol-5-yl}bicyclo[1.1.1]pentan-1-yl)-2-(3-methylphenoxy)acetamide] | 1000 to 2000 nM |
| Cc1ccc(OCC(=O)NC23CC(c4nc(COc5ccc(Cl)cc5)no4)(C2)C3)cc1 [Compound 103, N-(3-{3-[(4-chlorophenoxy)methyl]-1,2,4-oxadiazol-5-yl}bicyclo[1.1.1]pentan-1-yl)-2-(4-methylphenoxy)acetamide] | 50 to 250 nM |
| Cc1cc(OCC(=O)NC23CC(c4nc(COc5ccc(Cl)cc5)no4)(C2)C3)ccc1Cl [Compound 104, 2-(4-chloro-3-methylphenoxy)-N-(3-{3-[(4-chlorophenoxy)methyl]-1,2,4-oxadiazol-5-yl}bicyclo[1.1.1]pentan-1-yl)acetamide] | 250 to 1000 nM |
| O=C(COc1ccc(Cl)c(Cl)c1)NC12CC(c3nc(COc4ccc(Cl)cc4)no3)(C1)C2 [Compound 105, N-(3-{3-[(4-chlorophenoxy)methyl]-1,2,4-oxadiazol-5-yl}bicyclo[1.1.1]pentan-1-yl)-2-(3,4-dichlorophenoxy)acetamide] | < 50 nM |
| O=C(COc1cccc(Cl)c1)NC12CC(c3nc(COc4ccc(Cl)cc4)no3)(C1)C2 [Compound 106, 2-(3-chlorophenoxy)-N-(3-{3-[(4-chlorophenoxy)methyl]-1,2,4-oxadiazol-5-yl}bicyclo[1.1.1]pentan-1-yl)acetamide] | 250 to 1000 nM |
| O=C(COc1cccc(F)c1)NC12CC(c3nc(COc4ccc(Cl)cc4)no3)(C1)C2 [Compound 107, N-(3-{3-[(4-chlorophenoxy)methyl]-1,2,4-oxadiazol-5-yl}bicyclo[1.1.1]pentan-1-yl)-2-(3-fluorophenoxy)acetamide] | 250 to 1000 nM |
| O=C(COc1ccc(F)cc1)NC12CC(c3nc(COc4ccc(Cl)cc4)no3)(C1)C2 [Compound 108, N-(3-{3-[(4-chlorophenoxy)methyl]-1,2,4-oxadiazol-5-yl}bicyclo[1.1.1]pentan-1-yl)-2-(4-fluorophenoxy)acetamide] | 250 to 1000 nM |
| O=C(COc1ccc(Cl)c(Cl)c1)NC12CC(c3nnc(COc4ccc(Cl)cc4)o3)(C1)C2 [Compound 109, N-(3-{5-[(4-chlorophenoxy)methyl]-1,3,4-oxadiazol-2-yl}bicyclo[1.1.1]pentan-1-yl)-2-(3,4-dichlorophenoxy)acetamide] | < 50 nM |
| O=C(COc1ccc(Cl)c(F)c1)NC12CC(c3nc(COc4ccc(Cl)cc4)no3)(C1)C2 [Compound 110, 2-(4-chloro-3-fluorophenoxy)-N-(3-{3-[(4-chlorophenoxy)methyl]-1,2,4-oxadiazol-5-yl}bicyclo[1.1.1]pentan-1-yl)acetamide] | 50 to 250 nM |
| O=C(COc1ccc(Cl)cc1F)NC12CC(c3nc(COc4ccc(Cl)cc4)no3)(C1)C2 [Compound 111, 2-(4-chloro-2-fluorophenoxy)-N-(3-{3-[(4-chlorophenoxy)methyl]-1,2,4-oxadiazol-5-yl}bicyclo[1.1.1]pentan-1-yl)acetamide] | 50 to 250 nM |
| Cc1cc(COCC(=O)NC23CC(c4nc(COc5ccc(Cl)cc5)no4)(C2)C3)no1 [Compound 112, N-(3-{3-[(4-chlorophenoxy)methyl]-1,2,4-oxadiazol-5-yl}bicyclo[1.1.1]pentan-1-yl)-2-[(5-methyl-1,2-oxazol-3-yl)methoxy]acetamide] | > 2000 nM |
| O=C(COc1ccc(Cl)c(F)c1)NC12CC(c3noc(COc4ccc(Cl)cc4)n3)(C1)C2 [Compound 113, 2-(4-chloro-3-fluorophenoxy)-N-(3-{5-[(4-chlorophenoxy)methyl]-1,2,4-oxadiazol-3-yl}bicyclo[1.1.1]pentan-1-yl)acetamide] | < 50 nM |
| O=C(COc1ccc(C(F)(F)F)nc1)NC12CC(c3nc(COc4ccc(Cl)cc4)no3)(C1)C2 [Compound 114, N-(3-{3-[(4-chlorophenoxy)methyl]-1,2,4-oxadiazol-5-yl}bicyclo[1.1.1]pentan-1-yl)-2-{[6-(trifluoromethyl)pyridin-3-yl]oxy}acetamide] | 250 to 1000 nM |
| O=C(COc1ccc(Cl)c(F)c1)NC12CC(c3nnc(COc4ccc(Cl)c(F)c4)o3)(C1)C2 [Compound 115, 2-(4-chloro-3-fluorophenoxy)-N-(3-{5-[(4-chloro-3-fluorophenoxy)methyl]-1,3,4-oxadiazol-2-yl}bicyclo[1.1.1]pentan-1-yl)acetamide] | < 50 nM |
| O=C(COc1ccc(Cl)c(F)c1)NC12CC(c3nnc(Oc4ccc(C(F)(F)F)nc4)o3)(C1)C2 [Compound 116, 2-(4-chloro-3-fluorophenoxy)-N-[3-(5-{[6-(trifluoromethyl)pyridin-3-yl]oxy}-1,3,4-oxadiazol-2-yl)bicyclo[1.1.1]pentan-1-yl]acetamide] | 50 to 250 nM |
| O=C(COc1ccc(Cl)c(F)c1)NC12CC(c3nnc(Oc4cncc(C(F)(F)F)c4)o3)(C1)C2 [Compound 117, 2-(4-chloro-3-fluorophenoxy)-N-[3-(5-{[5-(trifluoromethyl)pyridin-3-yl]oxy}-1,3,4-oxadiazol-2-yl)bicyclo[1.1.1]pentan-1-yl]acetamide] | 50 to 250 nM |
| Cc1cc(Oc2nnc(C34CC(NC(=O)COc5ccc(Cl)c(F)c5)(C3)C4)o2)cnc1C#N [Compound 118, 2-(4-chloro-3-fluorophenoxy)-N-(3-{5-[(6-cyano-5-methylpyridin-3-yl)oxy]-1,3,4-oxadiazol-2-yl}bicyclo[1.1.1]pentan-1-yl)acetamide] | 250 to 1000 nM |
| N#Cc1ccc(Oc2nnc(C34CC(NC(=O)COc5ccc(Cl)c(F)c5)(C3)C4)o2)cn1 [Compound 119, 2-(4-chloro-3-fluorophenoxy)-N-(3-{5-[(6-cyanopyridin-3-yl)oxy]-1,3,4-oxadiazol-2-yl}bicyclo[1.1.1]pentan-1-yl)acetamide] | 250 to 1000 nM |
| COc1ccc(Oc2nnc(C34CC(NC(=O)COc5ccc(Cl)c(F)c5)(C3)C4)o2)cn1 [Compound 120, 2-(4-chloro-3-fluorophenoxy)-N-(3-{5-[(6-methoxypyridin-3-yl)oxy]-1,3,4-oxadiazol-2-yl}bicyclo[1.1.1]pentan-1-yl)acetamide] | 50 to 250 nM |
| O=C(COc1ccc(Cl)c(F)c1)NC12CC(c3nnc(Oc4ccc(C5CC5)nc4)o3)(C1)C2 [Compound 121, 2-(4-chloro-3-fluorophenoxy)-N-(3-{5-[(6-cyclopropylpyridin-3-yl)oxy]-1,3,4-oxadiazol-2-yl}bicyclo[1.1.1]pentan-1-yl)acetamide] | 50 to 250 nM |
| O=C(COc1ccc(Cl)c(F)c1)NC12CC(c3nnc(COc4cncc(C(F)(F)F)c4)o3)(C1)C2 [Compound 122, 2-(4-chloro-3-fluorophenoxy)-N-{3-[5-({[5-(trifluoromethyl)pyridin-3-yl]oxy}methyl)-1,3,4-oxadiazol-2-yl]bicyclo[1.1.1]pentan-1-yl}acetamide] | 50 to 250 nM |
| Cc1ccc(Oc2nnc(C34CC(NC(=O)COc5ccc(Cl)c(F)c5)(C3)C4)o2)cc1 [Compound 123, 2-(4-chloro-3-fluorophenoxy)-N-{3-[5-(4-methylphenoxy)-1,3,4-oxadiazol-2-yl]bicyclo[1.1.1]pentan-1-yl}acetamide] | 50 to 250 nM |
| COc1ccccc1Oc1nnc(C23CC(NC(=O)COc4ccc(Cl)c(F)c4)(C2)C3)o1 [Compound 124, 2-(4-chloro-3-fluorophenoxy)-N-{3-[5-(2-methoxyphenoxy)-1,3,4-oxadiazol-2-yl]bicyclo[1.1.1]pentan-1-yl}acetamide] | > 2000 nM |
| COc1ccc(Oc2nnc(C34CC(NC(=O)COc5ccc(Cl)c(F)c5)(C3)C4)o2)cc1 [Compound 125, 2-(4-chloro-3-fluorophenoxy)-N-{3-[5-(4-methoxyphenoxy)-1,3,4-oxadiazol-2-yl]bicyclo[1.1.1]pentan-1-yl}acetamide] | 250 to 1000 nM |
| O=C(COc1ccc(Cl)c(F)c1)NC12CC(c3nnc(Oc4ccc(F)cc4)o3)(C1)C2 [Compound 126, 2-(4-chloro-3-fluorophenoxy)-N-{3-[5-(4-fluorophenoxy)-1,3,4-oxadiazol-2-yl]bicyclo[1.1.1]pentan-1-yl}acetamide] | < 50 nM |
| O=C(COc1ccc(Cl)c(F)c1)NC12CC(c3nnc(Oc4ccccc4Cl)o3)(C1)C2 [Compound 127, 2-(4-chloro-3-fluorophenoxy)-N-{3-[5-(2-chlorophenoxy)-1,3,4-oxadiazol-2-yl]bicyclo[1.1.1]pentan-1-yl}acetamide] | 250 to 1000 nM |
| O=C(COc1ccc(Cl)c(F)c1)NC12CC(c3nnc(Oc4ccc(Cl)cc4)o3)(C1)C2 [Compound 128, 2-(4-chloro-3-fluorophenoxy)-N-{3-[5-(4-chlorophenoxy)-1,3,4-oxadiazol-2-yl]bicyclo[1.1.1]pentan-1-yl}acetamide] | < 50 nM |
| N#Cc1cccc(Oc2nnc(C34CC(NC(=O)COc5ccc(Cl)c(F)c5)(C3)C4)o2)c1 [Compound 129, 2-(4-chloro-3-fluorophenoxy)-N-{3-[5-(3-cyanophenoxy)-1,3,4-oxadiazol-2-yl]bicyclo[1.1.1]pentan-1-yl}acetamide] | 50 to 250 nM |
